From US11932602B2, “Method for preparing nicotinamide mononucleotide cocrystal” (BONTAC BIO-ENGINEERING(SHENZHEN) CO., LTD, priority 2021, dated 2024)

Conditions: screened with a sieve (1.00 mm, No. 18), poured into glass graduated measuring cylinder, apparent volume
Method: The tops were scraped flat. The apparent volumes were recorded. The bulk densities were calculated.

Work on `NC(=O)c1ccc[n+]([C@@H]2O[C@H](COP(=O)([O-])O)[C@@H](O)[C@H]2O)c1` [Form 1, nicotinamide mononucleotide anhydrous crystal (form 1)] yielded a Bulk density of 0.15 g/mL.
